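48-hour exposure; five concentrations; linearly interpolated endpoints. At the GI50, growth is halved. TGI is the concentration that stops growth completely.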
Columns and labels:
Assay in all cases: growth of human tumour cells (NCI), 48 h
RXF 393 renal = tested on: RXF 393 renal
M14 melanoma = tested on: M14 melanoma
OVCAR-3 ovarian = tested on: OVCAR-3 ovarian
SW-620 colon = tested on: SW-620 colon
786-0 renal = tested on: 786-0 renal
HCC-2998 colon = tested on: HCC-2998 colon
OVCAR-8 ovarian = tested on: OVCAR-8 ovarian
UO-31 renal = tested on: UO-31 renal
UACC-257 melanoma = tested on: UACC-257 melanoma
SK-OV-3 ovarian = tested on: SK-OV-3 ovarian
UACC-62 melanoma = tested on: UACC-62 melanoma
MOLT-4 leukemia = tested on: MOLT-4 leukemia
SF-539 CNS = tested on: SF-539 CNS
CAKI-1 renal = tested on: CAKI-1 renal
SF-268 CNS = tested on: SF-268 CNS
K-562 leukemia = tested on: K-562 leukemia
MALME-3M melanoma = tested on: MALME-3M melanoma
IGROV1 ovarian = tested on: IGROV1 ovarian
HOP-62 NSCLC = tested on: HOP-62 NSCLC
SNB-75 CNS = tested on: SNB-75 CNS
BT-549 breast = tested on: BT-549 breast
SF-295 CNS = tested on: SF-295 CNS
SNB-19 CNS = tested on: SNB-19 CNS
ACHN renal = tested on: ACHN renal
HCT-116 colon = tested on: HCT-116 colon
KM12 colon = tested on: KM12 colon
MDA-MB-435 = tested on: MDA-MB-435
OVCAR-5 ovarian = tested on: OVCAR-5 ovarian
SN12C renal = tested on: SN12C renal
T-47D breast = tested on: T-47D breast
SR leukemia = tested on: SR leukemia
NCI-H460 lung = tested on: NCI-H460 lung
NCI-H522 lung = tested on: NCI-H522 lung
DU-145 prostate = tested on: DU-145 prostate
SK-MEL-28 melanoma = tested on: SK-MEL-28 melanoma
A498 renal = tested on: A498 renal
MDA-MB-231 breast = tested on: MDA-MB-231 breast
CCRF-CEM leukemia = tested on: CCRF-CEM leukemia
SK-MEL-5 melanoma = tested on: SK-MEL-5 melanoma
HT29 colon = tested on: HT29 colon
HCT-15 colon = tested on: HCT-15 colon
NCI/ADR-RES ovarian = tested on: NCI/ADR-RES ovarian
HOP-92 NSCLC = tested on: HOP-92 NSCLC
COLO 205 colon = tested on: COLO 205 colon
LOX IMVI melanoma = tested on: LOX IMVI melanoma
U251 CNS = tested on: U251 CNS
NCI-H226 lung = tested on: NCI-H226 lung
OVCAR-4 ovarian = tested on: OVCAR-4 ovarian
HL-60(TB) leukemia = tested on: HL-60(TB) leukemia
EKVX NSCLC = tested on: EKVX NSCLC
PC-3 prostate = tested on: PC-3 prostate
A549 NSCLC = tested on: A549 NSCLC
TK-10 renal = tested on: TK-10 renal
NCI-H23 lung = tested on: NCI-H23 lung
SK-MEL-2 melanoma = tested on: SK-MEL-2 melanoma
HS 578T breast = tested on: HS 578T breast
MCF7 breast = tested on: MCF7 breast

CC1=C[C@H]2c3c(c(O)c(O)c4oc5c(C)cccc5c(=O)c34)[C@H](c3cc(O)c(O)c4oc5c(C)cccc5c(=O)c34)[C@H]2C(C)(C)C1
GI50 (RXF 393 renal): 1.22 µM | TGI (RXF 393 renal): 3.26 µM | GI50 (M14 melanoma): 1.52 µM | TGI (M14 melanoma): 5.87 µM | GI50 (OVCAR-3 ovarian): 1.52 µM | TGI (OVCAR-3 ovarian): 9.34 µM | GI50 (SW-620 colon): 1.93 µM | TGI (SW-620 colon): 10 µM | GI50 (786-0 renal): 2.85 µM | TGI (786-0 renal): 9.29 µM | GI50 (HCC-2998 colon): 1.45 µM | TGI (HCC-2998 colon): 3.47 µM | GI50 (OVCAR-8 ovarian): 1.7 µM | TGI (OVCAR-8 ovarian): 17.4 µM | GI50 (UO-31 renal): 1.23 µM | TGI (UO-31 renal): 2.78 µM | GI50 (UACC-257 melanoma): 2.54 µM | TGI (UACC-257 melanoma): 8.34 µM | GI50 (SK-OV-3 ovarian): 2.46 µM | TGI (SK-OV-3 ovarian): 9.96 µM | GI50 (UACC-62 melanoma): 1.6 µM | TGI (UACC-62 melanoma): 3.27 µM | GI50 (MOLT-4 leukemia): 1.06 µM | TGI (MOLT-4 leukemia): 31 µM | GI50 (SF-539 CNS): 1.67 µM | TGI (SF-539 CNS): 3.65 µM | GI50 (CAKI-1 renal): 1.5 µM | TGI (CAKI-1 renal): 9.08 µM | GI50 (SF-268 CNS): 1.74 µM | TGI (SF-268 CNS): 11.7 µM | GI50 (K-562 leukemia): 1.67 µM | TGI (K-562 leukemia): > 100 µM | GI50 (MALME-3M melanoma): 2.43 µM | TGI (MALME-3M melanoma): 10.7 µM | GI50 (IGROV1 ovarian): 1.39 µM | TGI (IGROV1 ovarian): 5.69 µM | GI50 (HOP-62 NSCLC): 1.15 µM | TGI (HOP-62 NSCLC): 3.44 µM | GI50 (SNB-75 CNS): 1.4 µM | TGI (SNB-75 CNS): 6.77 µM | GI50 (BT-549 breast): 1.9 µM | TGI (BT-549 breast): 5.04 µM | GI50 (SF-295 CNS): 1 µM | TGI (SF-295 CNS): 2.84 µM | GI50 (SNB-19 CNS): 2.27 µM | TGI (SNB-19 CNS): 11.2 µM | GI50 (ACHN renal): 2.31 µM | TGI (ACHN renal): 10.7 µM | GI50 (HCT-116 colon): 0.899 µM | TGI (HCT-116 colon): 2.69 µM | GI50 (KM12 colon): 2.56 µM | TGI (KM12 colon): 8.33 µM | GI50 (MDA-MB-435): 1.63 µM | TGI (MDA-MB-435): 3.87 µM | GI50 (OVCAR-5 ovarian): 2.65 µM | TGI (OVCAR-5 ovarian): 10.6 µM | GI50 (SN12C renal): 1.69 µM | TGI (SN12C renal): 6.7 µM | GI50 (T-47D breast): 2.51 µM | TGI (T-47D breast): 14.1 µM | GI50 (SR leukemia): 0.72 µM | TGI (SR leukemia): > 100 µM | GI50 (NCI-H460 lung): 0.825 µM | TGI (NCI-H460 lung): 3.02 µM | GI50 (NCI-H522 lung): 1.97 µM | TGI (NCI-H522 lung): 4.29 µM | GI50 (DU-145 prostate): 3.13 µM | TGI (DU-145 prostate): 14.9 µM | GI50 (SK-MEL-28 melanoma): 1.6 µM | TGI (SK-MEL-28 melanoma): 4.18 µM | GI50 (A498 renal): 1.85 µM | TGI (A498 renal): 5.35 µM | GI50 (MDA-MB-231 breast): 2.88 µM | TGI (MDA-MB-231 breast): 14.6 µM | GI50 (CCRF-CEM leukemia): 0.65 µM | TGI (CCRF-CEM leukemia): 10.4 µM | GI50 (SK-MEL-5 melanoma): 1.43 µM | TGI (SK-MEL-5 melanoma): 2.78 µM | GI50 (HT29 colon): 2.12 µM | TGI (HT29 colon): 8.92 µM | GI50 (HCT-15 colon): 1.29 µM | TGI (HCT-15 colon): 10.9 µM | GI50 (NCI/ADR-RES ovarian): 2.44 µM | TGI (NCI/ADR-RES ovarian): 7.15 µM | GI50 (HOP-92 NSCLC): 2.39 µM | TGI (HOP-92 NSCLC): 6.69 µM | GI50 (COLO 205 colon): 2.41 µM | TGI (COLO 205 colon): 6.8 µM | GI50 (LOX IMVI melanoma): 0.966 µM | TGI (LOX IMVI melanoma): 2.22 µM | GI50 (U251 CNS): 1.23 µM | TGI (U251 CNS): 7.09 µM | GI50 (NCI-H226 lung): 2.21 µM | TGI (NCI-H226 lung): 5.99 µM | GI50 (OVCAR-4 ovarian): 1.51 µM | TGI (OVCAR-4 ovarian): 14.7 µM | GI50 (HL-60(TB) leukemia): 3 µM | TGI (HL-60(TB) leukemia): 9.23 µM | GI50 (EKVX NSCLC): 2.34 µM | TGI (EKVX NSCLC): 11 µM | GI50 (PC-3 prostate): 1.51 µM | TGI (PC-3 prostate): 10.2 µM | GI50 (A549 NSCLC): 1.04 µM | TGI (A549 NSCLC): 4.85 µM | GI50 (TK-10 renal): 2.51 µM | TGI (TK-10 renal): 11.7 µM | GI50 (NCI-H23 lung): 1.24 µM | TGI (NCI-H23 lung): 3.42 µM | GI50 (SK-MEL-2 melanoma): 2.05 µM | TGI (SK-MEL-2 melanoma): 5.1 µM | GI50 (HS 578T breast): 1.93 µM | TGI (HS 578T breast): 9.19 µM | GI50 (MCF7 breast): 2 µM | TGI (MCF7 breast): 6.3 µM
